From the NIST ThermoML archive (doi:10.1016/j.jct.2013.12.022)

Tests used:
[1] = 100 kPa, Liquid; for viscosity: Cone and plate viscometry; for mass density: Vibrating tube method
[2] = wn = mass fraction of the nth substance listed; settings: 100 kPa, Liquid, w1 = 0.8465; for viscosity: Cone and plate viscometry; for mass density: Vibrating tube method

CC(CC(C)(C)C)CP(=O)([O-])CC(C)CC(C)(C)C.CCCCCCCCCCCCCC[P+](CCCCCC)(CCCCCC)CCCCCC
[1]
Settings	mass density [kg/m3]	viscosity [mPa·s]
288.15 K	890.86	1953
293.15 K	887.72	1446.3
298.15 K	884.55	1058.2
303.15 K	881.54	782.72
308.15 K	878.58	587.62
313.15 K	875.62	447.95
318.15 K	872.67	346.95
323.15 K	869.72	272.37
328.15 K	866.77	217.4
333.15 K	863.87	175.07
338.15 K	860.99	–
343.15 K	858.1	–
348.15 K	855.22	–
353.15 K	852.33	80.99
358.15 K	849.44	–
363.15 K	846.56	–
373.15 K	–	42.79
393.15 K	–	24.53
413.15 K	–	15.44
433.15 K	–	10.17

CC(CC(C)(C)C)CP(=O)([O-])CC(C)CC(C)(C)C.CCCCCCCCCCCCCC[P+](CCCCCC)(CCCCCC)CCCCCC + O
[2]
Settings	mass density [kg/m3]	viscosity [mPa·s]
288.15 K	921.09	286.96
293.15 K	917.76	211.13
298.15 K	914.4	156.74
303.15 K	911.03	119.54
308.15 K	907.66	93.22
313.15 K	904.29	74.08
318.15 K	900.95	60.01
323.15 K	897.66	49.03
328.15 K	894.18	40.7
333.15 K	890.61	34.16

CCCCCCCCCCCC [dodecane]
[1]
Settings	mass density [kg/m3]	viscosity [mPa·s]
288.15 K	753.43	1.58
293.15 K	749.81	1.47
298.15 K	746.18	1.35
303.15 K	742.55	1.24
308.15 K	738.91	1.14
313.15 K	735.26	1.06
318.15 K	731.61	0.99
323.15 K	727.95	0.93
328.15 K	724.29	0.87
333.15 K	720.61	0.82
